For one assay, the target named is PD-1/PD-L1 (Homo sapiens, UniProt Q9NZQ7). Description: PD-1/PD-L1 biochemical protein-protein interaction assay (ALPHA). The assay is classed as binding. Particulars: 0.3 nM His tagged PD-L1, 2.5 nM biotinylated Fc-PD-1, 60 minutes at 25° C., read-out: IC50 PD-L1-PD-1 Alpha IC50-mono PD-L1-fcP-D1. In short, it runs like this: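 Compound blockade of the PD-1/PD-L1 extracellular-domain interaction measured as reduced ALPHA signal after 60 min at 25 °C, pH 7.4 Hepes buffer with EDTA, Tween 20 and BSA. Final proteins: His-tagged PD-L1 0.3 nM, biotinylated Fc-PD-1 2.5 nM; four-parameter curve fit gives IC50.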

In another assay the target is T1, PD-1/PD-L1 interaction (Homo sapiens, UniProt Q9NZQ7).
T1 construct: expressed in transfected cells; host or cells: CHO cells (aAPC-PD-L1) co-cultured with Jurkat cells overexpressing PD-1 and an NFAT-luciferase reporter
The experiment in a line: PD-1/PD-L1 NFAT reporter co-culture assay. Type of assay: cell-based. Particulars: Jurkat PD-1 NFAT-luciferase cells co-cultured with aAPC-PD-L1 CHO cells, 6 hrs at 37° C.; read-out: EC50 NFAT Luciferase. In short, it runs like this: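 CHO aAPC-PD-L1 seeded overnight; PD-1/NFAT-luc Jurkat + cpd in RPMI 1640, 2% FBS added at once; 6 h, 37 °C; ONE-Glo luminescence; EC50, 4-parameter fit.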

For another assay, the target named is T2, PD-L1 (Homo sapiens, UniProt Q9NZQ7).
T2 construct: determine if they can specifically dimerize the extracellular domains of PD-L1
Description: PD-L1/PD-L1 dimerization biochemical protein-protein interaction assay (ALPHA). Particulars: compound-induced PD-L1 dimerization, head prints '1 nM' (0.5 nM His-tagged PD-L1 and 0.5 nM FLAG-tagged PD-L1), read-out: AC50 PDL1 Dimer Alpha 1 nM. Type of assay: binding. Summed up:
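After 2 h at 25 °C with compound, His- and FLAG-tagged PD-L1 ECDs (each 0.5 nM final; 25 mM Hepes pH 7.4, 150 mM NaCl) were detected by sequential anti-His acceptor and anti-FLAG donor bead incubations. Dose-response curves fitted to four-parameter equation for AC50.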

Sequence of PD-1/PD-L1 (Q9NZQ7 19-238 limits assumed): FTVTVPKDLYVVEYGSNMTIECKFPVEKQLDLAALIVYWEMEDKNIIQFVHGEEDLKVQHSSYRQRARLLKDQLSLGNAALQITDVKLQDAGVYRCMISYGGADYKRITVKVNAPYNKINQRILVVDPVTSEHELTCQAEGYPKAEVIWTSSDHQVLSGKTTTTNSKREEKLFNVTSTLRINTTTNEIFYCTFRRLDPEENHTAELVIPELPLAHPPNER
T2 sequence (Q9NZQ7 19-238 limits assumed): as above
T2 sequence (Q9NZQ7 19-238 limits assumed): as above
T1 sequence (Q9NZQ7 19-290): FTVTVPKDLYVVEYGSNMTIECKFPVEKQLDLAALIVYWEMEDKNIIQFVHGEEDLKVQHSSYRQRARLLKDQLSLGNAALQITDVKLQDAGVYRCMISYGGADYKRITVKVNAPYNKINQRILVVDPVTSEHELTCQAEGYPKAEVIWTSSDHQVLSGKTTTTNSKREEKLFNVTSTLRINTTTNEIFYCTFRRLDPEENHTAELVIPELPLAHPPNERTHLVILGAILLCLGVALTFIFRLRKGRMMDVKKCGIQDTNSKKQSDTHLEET

As to `Cc1c(COc2cc(OCc3cncc(C#N)c3)c(CN[C@@](C)(CO)C(=O)O)cc2Cl)cccc1-c1cccc(-c2nnc(CCN)o2)c1C` [Example 329, (S)-2-((4-((3′-(5-(2-aminoethyl)-1,3,4-oxadiazol-2-yl)-2,2′-dimethyl-[1,1′-biphenyl]-3-yl)methoxy)-5-chloro-2-((5-cyanopyridin-3-yl)methoxy)benzyl)amino)-3-hydroxy-2-methylpropanoic acid], the half-maximal inhibitory concentration (IC50) (usually the midpoint of a concentration-inhibition curve) at PD-1/PD-L1 came out at 0.284 nM. Further, on PD-1/PD-L1 interaction, the half-maximal effective concentration (EC50) (in general, the concentration that produces a half-maximal response) turned out to be 466 nM. In addition, the half-maximal activity concentration (AC50) – broadly, the concentration at which the activity in the assay is half-maximal – on PD-L1 came to 290 nM.
Turning to `Cc1c(COc2cc(OCc3cncc(C#N)c3)c(CNC[C@@H](O)CC(=O)O)cc2Cl)cccc1-c1cccc(-c2cn(C3CCNCC3)nn2)c1C` [Example 330, (S)-4-((5-chloro-2-((5-cyanopyridin-3-yl)methoxy)-4-((2,2′-dimethyl-3′-(1-(piperidin-4-yl)-1H-1,2,3-triazol-4-yl)-[1,1′-biphenyl]-3-yl)methoxy)benzyl)amino)-3-hydroxybutanoic acid], the IC50 on PD-1/PD-L1 was 0.188 nM. Moreover, the EC50 on PD-1/PD-L1 interaction amounted to 1640 nM. The AC50 on PD-L1 was 209 nM.
In the case of `Cc1c(COc2cc(OCc3cncc(C#N)c3)c(CNC[C@@H](O)CC(=O)O)cc2Cl)cccc1-c1cccc(-c2cn(CC3CCNC3)nn2)c1C` (stereo partly drawn) [Example 331], the 50% inhibitory concentration (IC50) at PD-1/PD-L1 was found to be 0.273 nM. On PD-1/PD-L1 interaction, the half-maximal effective concentration (EC50) came to 232 nM. Further, on PD-L1, the AC50 stood at 500 nM.
In the case of `C[C@@](CO)(NCc1cc(Cl)c(O[C@H]2CCc3c(-c4cccc(-c5ccc(OCCNCCO)cc5)c4Cl)cccc32)nc1OCc1cc(C#N)cc(C#N)c1)C(=O)O` [Example 332, (S)-2-(((5-chloro-6-(((S)-4-(2-chloro-4′-(2-((2-hydroxyethyl)amino)ethoxy)-[1,1′-biphenyl]-3-yl)-2,3-dihydro-1H-inden-1-yl)oxy)-2-((3,5-dicyanobenzyl)oxy)pyridin-3-yl)methyl)amino)-3-hydroxy-2-methylpropanoic acid], the IC50 on PD-1/PD-L1 turned out to be 0.114 nM. For the same compound, at PD-1/PD-L1 interaction, the EC50 stood at 47 nM. Besides, the half-maximal activity concentration (AC50) on PD-L1 is 18.7 nM.
With `Cc1c(COc2cc(OCc3cncc(C#N)c3)c(CN3CC[C@@H](O)C3)cc2Cl)cccc1-c1cccc(-c2ccc(CNCCCCC(=O)O)cc2)c1C` [Example 333, (R)-5-(((3″-((2-chloro-5-((5-cyanopyridin-3-yl)methoxy)-4-((3-hydroxypyrrolidin-1-yl)methyl)phenoxy)methyl)-2′,2″-dimethyl-[1,1′:3′,1″-terphenyl]-4-yl)methyl)amino)pentanoic acid], the IC50 at PD-1/PD-L1 turned out to be 0.289 nM. Further, the EC50 at PD-1/PD-L1 interaction was found to be 481 nM. In addition, the AC50 on PD-L1 amounted to 203 nM.
For the compound `Cc1c(COc2cc(OCc3cncc(C#N)c3)c(CNC[C@@H](O)CC(=O)O)cc2Cl)cccc1-c1cccc(-c2ccc(CN3CC[C@H](O)C3)cc2)c1C` [Example 335, (S)-4-((5-chloro-2-((5-cyanopyridin-3-yl)methoxy)-4-((4″-(((S)-3-hydroxypyrrolidin-1-yl)methyl)-2,2′-dimethyl-[1,1′:3′,1″-terphenyl]-3-yl)methoxy)benzyl)amino)-3-hydroxybutanoic acid], the IC50 at PD-1/PD-L1 was 0.414 nM. Also, at PD-1/PD-L1 interaction, the EC50 was found to be 437 nM. Further, at PD-L1, the half-maximal activity concentration (AC50) was determined as 231 nM.
For `Cc1c(COc2cc(OCc3cncc(C#N)c3)c(CN[C@@](C)(CO)C(=O)O)cc2Cl)cccc1-c1cccc(-c2ccc(CN3CC[C@H](O)C3)cc2)c1C` [Example 336, (S)-2-((5-chloro-2-((5-cyanopyridin-3-yl)methoxy)-4-((4″-(((S)-3-hydroxypyrrolidin-1-yl)methyl)-2,2′-dimethyl-[1,1′:3′,1″-terphenyl]-3-yl)methoxy)benzyl)amino)-3-hydroxy-2-methylpropanoic acid], the IC50 on PD-1/PD-L1 is 0.124 nM. Besides, the EC50 at PD-1/PD-L1 interaction turned out to be 398 nM. Moreover, the AC50 on PD-L1 amounted to 109 nM.
On the same counts, the results for `Cc1c(COc2cc(OCc3cncc(C#N)c3)c(CN[C@H]3CC[C@@H](C(=O)O)C3)cc2Cl)cccc1-c1cccc(-c2ccc(OCCNCCO)cc2)c1C` [Example 338, (1R,3S)-3-((5-chloro-2-((5-cyanopyridin-3-yl)methoxy)-4-((4″-(2-((2-hydroxyethyl)amino)ethoxy)-2,2′-dimethyl-[1,1′:3′,1″-terphenyl]-3-yl)methoxy)benzyl)amino)cyclopentane-1-carboxylic acid] are 0.179 nM, 1060 nM and 140 nM.
As for `C[C@@](CO)(NCc1cc(Cl)c(OCc2cccc(-c3cccc(-c4ccc(OCCNCCO)cc4)c3Cl)c2Cl)nc1OCc1cncc(C#N)c1)C(=O)O` [Example 340, (S)-2-(((5-chloro-2-((5-cyanopyridin-3-yl)methoxy)-6-((2,2′-dichloro-4″-(2-((2-hydroxyethyl)amino)ethoxy)-[1,1′:3′,1″-terphenyl]-3-yl)methoxy)pyridin-3-yl)methyl)amino)-3-hydroxy-2-methylpropanoic acid], the IC50 at PD-1/PD-L1 is 0.087 nM. On PD-1/PD-L1 interaction, the EC50 turned out to be 217 nM. In addition, the AC50 at PD-L1 turned out to be 27.8 nM.
On the same counts, the results for `Cc1c(COc2cc(OCc3cncc(C#N)c3)c(CNC[C@@H](O)CC(=O)O)cc2Cl)cccc1-c1cccc(-c2ccc(OCCNC[C@@H](O)CC(=O)O)cc2)c1Cl` [Example 341, (S)-4-((4-((4″-(2-(((S)-3-carboxy-2-hydroxypropyl)amino)ethoxy)-2′-chloro-2-methyl-[1,1′:3′,1″-terphenyl]-3-yl)methoxy)-5-chloro-2-((5-cyanopyridin-3-yl)methoxy)benzyl)amino)-3-hydroxybutanoic acid] are 0.064 nM, 284 nM and 38.3 nM.
Taken in the same sequence, the figures for `Cc1c(COc2cc(OCc3cncc(C#N)c3)c(CN[C@@](C)(CO)C(=O)O)cc2Cl)cccc1-c1cccc(-c2ccc(C3CCNC3)cc2)c1C` (stereo partly drawn) [Example 342, (S)-2-((5-chloro-2-((5-cyanopyridin-3-yl)methoxy)-4-((2,2′-dimethyl-4″-((R)-pyrrolidin-3-yl)-[1,1′:3′,1″-terphenyl]-3-yl)methoxy)benzyl)amino)-3-hydroxy-2-methylpropanoic acid and(S)-2-((5-chloro-2-((5-cyanopyridin-3-yl)methoxy)-4-((2,2′-dimethyl-4″-((S)-pyrrolidin-3-yl)-[1,1′:3′,1″-terphenyl]-3-yl)methoxy)benzyl)amino)-3-hydroxy-2-methylpropanoic] were 0.4 nM, 447 nM and 118 nM.
On the same counts, the results for `Cc1c(COc2cc(OCc3cncc(C#N)c3)c(CN[C@@](C)(CO)C(=O)O)cc2Cl)cccc1-c1cccc(-c2ccc3c(c2)CC(N)C3)c1C` (stereo partly drawn) [Example 343, (S)-2-((4-((3′-((R)-2-amino-2,3-dihydro-1H-inden-5-yl)-2,2′-dimethyl-[1,1′-biphenyl]-3-yl)methoxy)-5-chloro-2-((5-cyanopyridin-3-yl)methoxy)benzyl)amino)-3-hydroxy-2-methylpropanoic acid and(S)-2-((4-((3′-((S)-2-amino-2,3-dihydro-1H-inden-5-yl)-2,2′-dimethyl-[1,1′-biphenyl]-3-yl)methoxy)-5-chloro-2-((5-cyanopyridin-3-yl)methoxy)benzyl)amino)-3-hydroxy-2-methylpropanoic acid] are 0.218 nM, 158 nM and 81.1 nM.
In the case of `Cc1c(COc2cc(OCc3cncc(C#N)c3)c(CN3CCCC[C@H]3C(=O)O)cc2Cl)cccc1-c1cccc(-c2ccc(OCCNCCO)cc2)c1C` [Example 344, (S)-1-(5-chloro-2-((5-cyanopyridin-3-yl)methoxy)-4-((4″-(2-((2-hydroxyethyl)amino)ethoxy)-2,2′-dimethyl-[1,1′:3′,1″-terphenyl]-3-yl)methoxy)benzyl)piperidine-2-carboxylic acid], the IC50 at PD-1/PD-L1 is 0.064 nM. Besides, the EC50 on PD-1/PD-L1 interaction turned out to be 475 nM. Also, the AC50 at PD-L1 stood at 55 nM.
On the same counts, the results for `Cc1c(COc2cc(OCc3cncc(C#N)c3)c(CN3CC[C@@H](C(=O)O)C3)cc2Cl)cccc1-c1cccc(-c2ccc(OCCNCCO)cc2)c1C` [Example 345, (R)-1-(5-chloro-2-((5-cyanopyridin-3-yl)methoxy)-4-((4″-(2-((2-hydroxyethyl)amino)ethoxy)-2,2′-dimethyl-[1,1′:3′,1″-terphenyl]-3-yl)methoxy)benzyl)pyrrolidine-3-carboxylic acid] are 0.09 nM, 552 nM and 229 nM.
Taken in the same sequence, the figures for `Cc1c(COc2cc(OCc3cncc(C#N)c3)c(CNC[C@@H](O)CC(=O)O)cc2Cl)cccc1-c1cccc(NC(=O)c2ccc(CNC[C@@H](O)CC(=O)O)cn2)c1C` [Example 346, (S)-4-(((6-((3′-((4-((((S)-3-carboxy-2-hydroxypropyl)amino)methyl)-2-chloro-5-((5-cyanopyridin-3-yl)methoxy)phenoxy)methyl)-2,2′-dimethyl-[1,1′-biphenyl]-3-yl)carbamoyl)pyridin-3-yl)methyl)amino)-3-hydroxybutanoic acid] were 0.074 nM, 214 nM and 181 nM.

The values above are taken from patent US12590062B2, “PD-1/PD-L1 inhibitors” (Gilead Sciences, Inc., priority 2017, dated 2026).
